Consider eight molecules from article PMC10477886, “Adamantaniline Derivatives Target ATP5B to Inhibit Translation of Hypoxia Inducible Factor‐1α” (Advanced Science, 2023).

A short description of data set [1]: plasma concentration and pharmacokinetics after intraperitoneal administration in ICR mice. The format is in vivo. The note with it: for concentration in the plasma (rough screen): intraperitoneal 50 mg kg^−1, two mice per compound, five times. Here is the method:
(§1) First, we roughly screened the concentrations in the plasma of seven selected compounds (1‐3n, 1‐3au, 1‐4a, 1‐4k, 1‐4l, 1‐4m, and 1‐4p) at indicated times after intraperitoneal administration in the Institute of Cancer Research (ICR) mice at a dose of 50 mg kg^−1 with two mice per compound, the blood at five different times was collected and the plasma concentration was analyzed finally. […] Besides, we examined the toxicity of HI‐104 in ICR mice by administering for 1 week at a dose of 100 mg kg^−1 by intraperitoneal injection.

For data set [2], the system named is HIF‐1α transcriptional activity. Nature of the data set: dual‐luciferase assay (HRE‐Firefly Luciferase / renilla) of HIF‐1α transcriptional activity in HEK293T cells. The conditions noted are these: for inhibition at 10 µM / IC50: Homo sapiens, HEK-293T, mean ± s.d. (n = 3); for inhibition at 10 µM: incubation 24 h, read-out: Inhibition rate [%] @ 10 µM; for IC50: HEK293T dual‐luciferase. The format is cell-based, human. The text has this: To screen HIF‐1α inhibitors in a robust cell‐based assay, we optimized the dual‐luciferase assay with pLenti‐HIF‐1αP2A (P402A and P564A) instead of pLenti‐HIF‐1α in order to ensure the expression of HIF‐1α under normoxia condition. In the cell‐based assay, HEK293T cells were co‐transfected with pLenti‐HIF‐1αP2A, renilla, and hypoxia‐responsive element (HRE)‐Firefly Luciferase (Figure S1, Supporting Information). […] Three compounds were selected as the positive controls including two inhibitors (PX‐478 2HCl and BAY 87‐2243) and an activator (BAY 85‐3934) in the screening assay.
HEK293T cells were stably transfected with reporter plasmids pGMLV‐HRE‐LUC‐puromycin, pMSCV‐renilla‐hygromycin, and pLenti‐HIF‐1αP2A‐neomycin. Stable cell line constructed above, 293‐HIF‐1αP2A‐HRE‐Fluc‐Rluc, were seeded in 384‐well plates and cultured in DMEM with 10% FBS. The following day, the cells were pretreated with indicated chemical compounds from the National Compound Library of the Shanghai Institute of Materia Medica, Chinese Academy of Sciences by Mosquito HTS. The plate was then placed in an incubator chamber and incubated at 37 °C for 24 h. The ratio of firefly/renilla luciferase activity was determined by using the Envision (PerkinElmer).
Stable cell line 293‐HRE‐Fluc‐Rluc expressed luciferase and renilla or HEK293T cells transfected with indicated plasmids (pGL3‐HRE‐luciferase and pSV40‐renilla) were seeded in a 96‐well plate. The cells were co‐incubated with indicated compounds for 24 h and luciferase activities were detected in Microplate Reader (BioTek SYNEGRY H1) using the Dual Luciferase Reporter Assay System Kit (Promega, USA E1910) according to the manufacturer's instruction. The relative Luc activity was normalized by renilla activity. Three independent experiments were performed, and the calculated means and SDs are presented.

Data set [3] concerns HIF‐1α protein level. The data set is described as follows: western blot of HIF‐1α protein level in cells. The note with it: hypoxia. The format is cell-based, human. Here is the method:
Cells were lysed with RIPA lysis (Epizyme, PC101) containing 1% cocktail protease inhibitors (MCE), and protein concentrations were determined by BCA kits (Beyotime, P0012S). Samples were denatured using DS‐PAGE Protein Staining and Loading Buffer (5×) (Beyotime, P0015L) followed by boiling for 10 min at 98 °C then the proteins were fractionated by 10% or 12.5% SDS‐PAGE and transferred to Cellulose Nitrate Membrane Filters (WHATMAN). After blocking in 5% non‐fat milk for 2 h at room temperature, the membrane was incubated overnight with specific antibodies at 4 °C, followed by horseradish peroxidase (HRP)‐linked anti‐mouse or anti‐rabbit secondary antibody (Cell Signaling Technology). Finally, An Immobilon Western Chemiluminescent HRP Substrate Kit (Merck Millipore) was used for protein bands detection. In addition, blots were probed with anti‐β‐actin (Merck, Darmstadt, Germany) antibody as the internal control.
In general terms: A western blot detects proteins with antibodies after separation by electrophoresis.

A short description of data set [4]: toxicity in ICR mice, administering for 1 week. The class given is in vivo. The conditions noted are these: 100 mg kg^−1 intraperitoneal for 1 week. Here is the method:
as §1

The test system of data set [5] is MHCC97‐L xenograft tumor. Nature of the data set: MHCC97‐L xenograft model in nude mice (wildtype and ATP5A/ATP5B knock‐out). The class given is in vivo. The text has this:
HIF‐1α overexpression is implicated in human hepatocellular carcinoma (HCC).^[ [57] ^] To investigate the biological significance of HI‐104 in the progression of HCC by targeting ATP5A or ATP5B, we performed xenograft models in nude mice with ATP5A or ATP5B stable knock‐out MHCC97‐L cell lines (Figure 6A). The cells were inoculated to 6–8 weeks old nude mice under the armpits, and daily intraperitoneal injection of HI‐104 was started after the tumor volume reached 100 mm^3. Tumor volume and body weight were monitored during the treatment.
MHCC97L wildtype and ATP5A or ATP5B stable knock‐out cells (3 × 10^6) were implanted subcutaneously into the right flanks of 6‐week‐old female BALB/c nude mice. After most of the tumors had reached a threshold size of 100 mm^3, the mice received an intraperitoneal injection of vehicle alone (10% DMSO, 10% Cremophor, and 80% saline, pH 7–8) or HI‐104 over 10 days. The tumor volume was monitored every other day with calipers. After 10 days of treatment or if the mice met humane endpoint criteria, the mice were sacrificed, and tumors were dissected, photographed, and weighed. Tumor tissues were either collected and fixed in 10% neutral‐buffered formalin or snap‐frozen in liquid N2 and stored at −80 °C for subsequent analyses. All animals used in this study were handled in accordance with federal and institutional guidelines under a protocol approved by the Institutional Animal Care and Use Committee at Shanghai Jiao Tong University School of Medicine.

Data set [6] addresses F1‐ATP synthase complex (Sus scrofa, UniProt K7GLT8+P80021). The data set is described as follows: fluorescence polarization binding assay. More on the design: species or system pig. The text has this:
ATP5A and ATP5B are important components of FOF1–ATP synthase, also known as ATP synthase, which is a protein complex that catalyzes ATP synthesis by utilizing energy from the translocation of protons across biological membranes.^[ [40] ^] FOF1‐ATP synthase consists of two domains: the membrane‐spanning domain, FO, which acts as a proton channel, and the soluble catalytic domain, F1, which synthesizes ATP and is composed of nine subunits(α 3 β 3 γδɛ).^[ [41], [42], [43], [44] ^] […] To verify whether HI‐101 targeted ATP5A and ATP5B, we knocked down the subunits of F1 domains separately by shRNA.
F1‐ATPase at indicated concentrations was incubated with HI‐103 (4 nM), bodipy‐1 was as a negative molecule, conduct the experiment after incubating in 96‐well microplates of black polystyrene for 10 min. The FP results were analyzed with GraphPad Prism 9.0.
In general terms: Fluorescence polarisation rises when a labelled molecule tumbles more slowly, as on binding a larger partner.

Sequence of F1‐ATP synthase complex (K7GLT8 entry or part of it): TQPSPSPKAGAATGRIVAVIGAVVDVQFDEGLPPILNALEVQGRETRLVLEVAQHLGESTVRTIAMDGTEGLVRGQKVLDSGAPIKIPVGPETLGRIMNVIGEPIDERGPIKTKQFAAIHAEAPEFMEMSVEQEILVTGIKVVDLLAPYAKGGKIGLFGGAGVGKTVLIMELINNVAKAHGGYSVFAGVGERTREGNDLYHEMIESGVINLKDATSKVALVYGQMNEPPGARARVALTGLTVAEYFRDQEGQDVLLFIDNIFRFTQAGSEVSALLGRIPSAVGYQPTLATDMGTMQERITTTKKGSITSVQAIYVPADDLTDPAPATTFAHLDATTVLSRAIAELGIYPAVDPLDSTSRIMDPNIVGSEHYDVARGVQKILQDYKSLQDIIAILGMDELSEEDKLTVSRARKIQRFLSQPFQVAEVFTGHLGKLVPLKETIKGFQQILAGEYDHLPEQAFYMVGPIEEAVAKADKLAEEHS
Sequence of F1‐ATP synthase complex (A0A286ZYL7 entry or part of it, further chain): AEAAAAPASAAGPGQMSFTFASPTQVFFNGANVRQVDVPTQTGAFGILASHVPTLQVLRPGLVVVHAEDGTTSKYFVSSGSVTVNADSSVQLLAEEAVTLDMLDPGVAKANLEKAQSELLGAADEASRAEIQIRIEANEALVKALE
Sequence of F1‐ATP synthase complex (A5GFX4 entry or part of it, further chain): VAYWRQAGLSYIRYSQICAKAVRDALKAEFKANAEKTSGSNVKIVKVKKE
Sequence of F1‐ATP synthase complex (P80021 44-553): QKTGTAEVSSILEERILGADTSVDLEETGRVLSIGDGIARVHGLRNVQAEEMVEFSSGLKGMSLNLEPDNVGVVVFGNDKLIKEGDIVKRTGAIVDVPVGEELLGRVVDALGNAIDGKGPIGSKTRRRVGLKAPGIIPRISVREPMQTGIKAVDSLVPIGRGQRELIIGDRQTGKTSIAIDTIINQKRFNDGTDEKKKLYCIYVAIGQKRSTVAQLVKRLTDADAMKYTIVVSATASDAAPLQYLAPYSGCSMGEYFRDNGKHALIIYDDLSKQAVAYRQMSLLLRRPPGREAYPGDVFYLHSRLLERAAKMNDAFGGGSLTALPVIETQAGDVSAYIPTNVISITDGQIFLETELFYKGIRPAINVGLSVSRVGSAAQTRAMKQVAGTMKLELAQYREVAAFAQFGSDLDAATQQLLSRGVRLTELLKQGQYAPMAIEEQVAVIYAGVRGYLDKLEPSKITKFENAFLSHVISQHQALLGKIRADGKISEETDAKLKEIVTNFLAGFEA

For the molecule `O=C(Nc1ccc(C23CC4CC(CC(C4)C2)C3)cc1)c1cc[nH]n1` [1‐4m, N‐(4‐((3r,5r,7r)‐Adamantan‐1‐yl)Phenyl)−1H‐Pyrazole‐3‐Carboxamide], the “concentration in the plasma (rough screen)” value (“concentration in the plasma” for short) in data set [1] is recorded as “barely detectable in the plasma”. Further, in data set [2] (HEK293T), the inhibition at 10 µM is 99.8 ± 0.1%. The molecule also returned an IC50 in data set [2] of 0.079 ± 0.002 µM.

As to `CC[C@H]1/C=C/C=C/C[C@@H](C)[C@H](O)[C@@](C)(O)C(=O)[C@@H](C)[C@H](O)[C@@H](C)C(=O)[C@@H](C)[C@H](O)[C@@H](C)/C=C/C(=O)O[C@@H]2[C@H](C)[C@H](CC1)O[C@]1(CC[C@H](C)[C@H](C[C@@H](C)O)O1)[C@H]2C` [Oligomycin, reference compound], the “HIF‐1α protein level” value in data set [3] was “decreased HIF‐1α transcriptional activity and protein level in a dose‐dependent manner”. Moreover, the “HIF‐1α transcriptional activity (relative luciferase activity), in words” value in data set [2] (HEK293T, hypoxia) was “decreased HIF‐1α transcriptional activity and protein level in a dose‐dependent manner”.

On to `Cn1cncc1C(=O)Nc1ccc(C23CC4CC(CC(C4)C2)C3)cc1` [1‐4l, N‐(4‐((3r,5r,7r)‐Adamantan‐1‐yl)Phenyl)−1‐Methyl‐1H‐Imidazole‐5‐Carboxamide], for which the “concentration in the plasma” value in data set [1] is reported as “barely detectable in the plasma”. Moreover, in data set [2] (HEK293T), the inhibition at 10 µM was 97.8 ± 0.6%. In data set [2], this molecule had an IC50 of 0.083 ± 0.003 µM.

As for `O=C(Nc1ccc(C23CC4CC(CC(C4)C2)C3)cc1)c1ccccn1` [1‐4a, N‐(4‐((3r,5r,7r)‐Adamantan‐1‐yl)Phenyl)Picolinamide], the “concentration in the plasma” value in data set [1] is reported as “barely detectable in the plasma”. Moreover, in data set [2] (HEK293T), the inhibition at 10 µM turned out to be 99.7 ± 0.2%. Besides, the 50% inhibitory concentration (IC50) in data set [2] was 0.065 ± 0.022 µM.

In the case of `O=C(Nc1ccc(C23CC4CC(CC(C4)C2)C3)cc1)c1c[nH]cn1` [1‐4k, N‐(4‐((3r,5r,7r)‐Adamantan‐1‐yl)Phenyl)−1H‐Imidazole‐4‐Carboxamide], in data set [1], the “concentration in the plasma” value is on record as “barely detectable in the plasma”. Moreover, in data set [2] (HEK293T), the inhibition at 10 µM was 99.7 ± 0.2%. The half-inhibitory concentration (IC50) in data set [2] was determined as 0.086 ± 0.003 µM.

For the molecule `C[N+](C)(C)CCCC(=O)Nc1ccc(C(=O)Nc2ccc(C34CC5CC(CC(C5)C3)C4)cc2)cc1` [1‐3au, 4‐((4‐((4‐((3r,5r,7r)‐Adamantan‐1‐yl)Phenyl)Carbamoyl)Phenyl)Amino)‐N,N,N‐Trimethyl‐4‐Oxobutan‐1‐Aminium], in data set [4], the “toxicity (body weight and mental status)” value is given as “not overtly toxic”. Further, in data set [1], the “concentration in the plasma” value is listed as “high concentration in the plasma”. In data set [1] (mouse, ip, intraperitoneal, plasma, read-out: area under the curve (AUC0‐24 h)), the AUC came out at 861 µg·h/mL. The Cmax in data set [1] (mouse, ip, intraperitoneal, plasma, read-out: maximum concentration (Cmax)) came out at 91.7 µg/mL. The half-life in data set [1] (mouse, plasma, ip, intraperitoneal) is 5.66 h. Besides, the tumor growth entry in data set [5] (ATP5B KO MHCC97‐L xenograft models) is reported as “almost had no effect”. For the same molecule, the “tumor volume and weight” value in data set [5] (wildtype MHCC97‐L xenograft, daily intraperitoneal injection) is “reduced the tumor volume and weight”. Besides, the body weight result in data set [5] (wildtype MHCC97‐L xenograft, nude mice) is “tolerant weight loss”. Besides, the inhibition at 10 µM in data set [2] (HEK293T) worked out at 89.9 ± 1.6%. The IC50 in data set [2] amounted to 1.3 ± 0.3 µM.

`O=C(Nc1ccc(C23CC4CC(CC(C4)C2)C3)cc1)c1cccc(O)c1` [1‐3n, N‐(4‐((3r,5r,7r)‐Adamantan‐1‐yl)Phenyl)−3‐Hydroxybenzamide]: the “concentration in the plasma” value in data set [1] is recorded as “barely detectable in the plasma”. Also, the inhibition at 10 µM in data set [2] (HEK293T) was found to be 99.7 ± 0.1%. In data set [2], this molecule yielded a half-inhibitory concentration (IC50) of 0.026 ± 0.005 µM.

In turn, `CC1=CC(C)=[N+]2C1=C(CCCC(=O)Nc1ccc(C(=O)Nc3ccc(C45CC6CC(CC(C6)C4)C5)cc3)cc1)c1c(C)cc(C)n1[B-]2(F)F` [1‐3z, N‐(4‐((3r,5r,7r)‐Adamantan‐1‐yl)Phenyl)−4‐(4‐(5,5‐Difluoro‐1,3,7,9‐Tetramethyl‐5H‐4l4,5l4‐Dipyrrolo[1,2‐c:2′,1′‐f][1,3,2]Diazaborinin‐10‐yl)Butanamido)Benzamide] displayed a Kd in data set [6] of 0.0026 µM. Besides, the inhibition at 10 µM in data set [2] (HEK293T) worked out at 80.3 ± 1.2%. The same molecule gave an IC50 in data set [2] of 2.1 ± 0.5 µM.

Broadly, the inhibition is the drop in the measured response relative to a control, in per cent. By IC50 is commonly meant the concentration that gives 50% inhibition. Read a low IC50 as greater potency. As usually defined, the half-life is the time in which the quantity being followed falls by half. The low end stands for fast loss, the high end for slow loss. One may read the Kd as a measure of binding affinity in units of concentration.
